Assay results published in article PMC5048153 (Scientific Reports, 2016).
Where two headings read alike, the source gives them in different places.

How the values were obtained:
[1] = biological target: T1, 5-HT2C receptor (Homo sapiens, UniProt P28335); experiment: FLIPR assay for 5-HT2C antagonism; type: cell-based; conditions: for inhibition at 100 µM: read-out: Inhibition 5-HT2C
T1 sequence (P28335 33-458): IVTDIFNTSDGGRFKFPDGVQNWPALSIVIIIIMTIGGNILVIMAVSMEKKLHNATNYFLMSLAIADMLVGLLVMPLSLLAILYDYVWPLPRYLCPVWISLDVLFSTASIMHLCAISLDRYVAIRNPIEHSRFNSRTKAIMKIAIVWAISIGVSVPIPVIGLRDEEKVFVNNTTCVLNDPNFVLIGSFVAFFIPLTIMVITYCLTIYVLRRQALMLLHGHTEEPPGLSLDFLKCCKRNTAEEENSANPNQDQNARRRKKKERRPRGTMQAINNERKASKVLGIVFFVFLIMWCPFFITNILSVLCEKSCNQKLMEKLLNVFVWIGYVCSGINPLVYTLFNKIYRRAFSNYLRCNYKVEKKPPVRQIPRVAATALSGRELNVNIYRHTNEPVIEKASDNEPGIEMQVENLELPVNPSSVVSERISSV
Procedure: Seed cells at the density of 10 K cell/well, 37 °C, 5% CO2 incubate for 16–24 hours, then loading cells with 30 ul of Calcium 5 and 37 °C, 5% CO2 incubate for 1 hour. After transfer compound to compound plate with 30 ul Assay Buffer by Echo, add 15 ul/well of compound, incubate for 10 mins.

[2] = biological target: T2, hERG K^+ channel (Homo sapiens, UniProt Q12809); experiment: hERG K+ channel inhibition (QPatch); type: cell-based; conditions: hERG-expressing CHO cells, Qpatch 16X assay
T2 construct: expressed in transfected cells
T2 sequence (Q12809 whole entry): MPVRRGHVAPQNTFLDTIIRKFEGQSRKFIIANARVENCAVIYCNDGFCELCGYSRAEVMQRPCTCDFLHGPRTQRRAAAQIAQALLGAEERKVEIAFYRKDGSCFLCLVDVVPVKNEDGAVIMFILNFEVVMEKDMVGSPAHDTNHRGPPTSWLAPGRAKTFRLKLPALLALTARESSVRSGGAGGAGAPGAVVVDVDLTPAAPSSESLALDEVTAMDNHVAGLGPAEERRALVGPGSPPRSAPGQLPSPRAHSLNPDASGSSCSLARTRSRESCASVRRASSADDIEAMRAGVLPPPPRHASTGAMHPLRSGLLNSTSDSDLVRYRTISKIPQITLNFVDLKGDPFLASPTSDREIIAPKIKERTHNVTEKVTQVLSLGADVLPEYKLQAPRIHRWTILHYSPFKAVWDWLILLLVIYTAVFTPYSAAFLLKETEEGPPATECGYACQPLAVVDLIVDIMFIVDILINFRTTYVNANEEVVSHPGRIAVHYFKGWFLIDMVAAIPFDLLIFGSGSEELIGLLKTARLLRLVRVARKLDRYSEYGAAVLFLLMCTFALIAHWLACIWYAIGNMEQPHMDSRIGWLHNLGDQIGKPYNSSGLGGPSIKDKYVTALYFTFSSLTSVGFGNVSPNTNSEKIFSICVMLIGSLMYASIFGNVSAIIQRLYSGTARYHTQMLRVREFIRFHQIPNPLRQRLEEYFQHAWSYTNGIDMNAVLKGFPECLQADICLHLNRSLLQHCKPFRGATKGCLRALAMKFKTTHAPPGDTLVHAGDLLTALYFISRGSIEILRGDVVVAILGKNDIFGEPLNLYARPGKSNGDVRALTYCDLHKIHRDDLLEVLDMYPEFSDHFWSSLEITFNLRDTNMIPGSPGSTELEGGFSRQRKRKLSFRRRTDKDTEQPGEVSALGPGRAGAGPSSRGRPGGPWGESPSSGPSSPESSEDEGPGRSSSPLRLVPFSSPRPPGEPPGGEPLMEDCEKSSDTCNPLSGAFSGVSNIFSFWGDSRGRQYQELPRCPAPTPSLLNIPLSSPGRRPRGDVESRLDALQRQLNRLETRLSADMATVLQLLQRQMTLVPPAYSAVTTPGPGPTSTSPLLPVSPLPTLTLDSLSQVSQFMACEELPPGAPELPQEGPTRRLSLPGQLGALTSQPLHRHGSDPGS
Procedure: In brief, A Chinese hamster ovary (CHO) cell line stably expressing hERG potassium channels were cultured into appropriate cell density. Then cells were automatically prepared for application to chips. Whole-cell recordings were performed using automated QPatch (Sophion) and the data were analyzed using Assay Software provided by Graphpad Prism 5.0.

[3] = test system: corticosterone-injured PC12 cells; experiment: Intracellular calcium ion concentration analysis (Fura-2 AM); type: cell-based, rat; conditions: 200 µM corticosterone and 5 µM drug
Procedure: The detailed procedures were performed according to the reported literatures. In brief, calcium ion concentration was measured by Fura-2 AM (Thermo Scientific). PC12 cells were treated with compound 6a-1 for 48 hours. Then cells were detached with 0.25% trypsin and centrifuged at 1000 r/min for 5 minutes. The supernatant was removed and the cells were stained with Fura-2 AM according to the manufacturer’s instructions. Fluorescence intensity of labeled cells was photographed for 25 random sights each group using Thermo Scientific Array Scan Infinity.

[4] = test system: corticosterone injured PC12 cells; experiment: Real-time PCR NGF mRNA level; type: cell-based, rat; conditions: 200 µM corticosterone and 5 µM drug
[5] = test system: corticosterone injured PC12 cells; experiment: Hoechst 33258 staining (apoptosis); type: cell-based, rat; conditions: 200 µM corticosterone and 5 µM drug
Procedure: To detect apoptotic cells, drug treated cells were stained with the DNA dye Hoechst 33258. Cells with the indicated treatment were fixed with methanol for 10 min at 4 °C before incubation with Hoechst 33258 for 10 min at room temperature. After washes with PBS, the apoptotic cells were mounted onto slides and observed under the fluorescence microscope BX61 (Olympus, Japan). Images were captured using DP71 CCD digital camera (Olympus).

SMILES | IC50 ([1]; FLIPR calcium flux, read-out: IC50 5-HT2C antagonism) | inhibition at 100 µM [1] | IC50 [2] | fluorescence intensity of free intracellular calcium ion [3] | NGF mRNA level [4] | apoptosis of PC12 cells induced by corticosterone [5] | inhibition at 100 µM ([1]; max tested concentration at 100μM)
COc1ccc2c(c1)C(CCNC(C)=O)=NCC2.O=C(O)C(=O)O [6a-1, N-(2-(7-Methoxy-3,4-dihydroisoquinolin-1-yl)ethyl) acetamide oxalate] | > 100 µM | 5.2% | > 40 µM | much weaker fluorescence intensity than Fluoxetine and Agomelatine | does not change | effectively reversed apoptosis | 
COc1ccc2cccc(CCNC(C)=O)c2c1 [Agomelatine, reference compound] |  |  |  | weaker fluorescence intensity than corticosterone-injured PC12 cells |  |  | 66.6%
